Test results published in PubChem BioAssay (NCI).
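Five compound concentrations were applied to cells in 96-well plates for 48 hours; endpoints were derived by simple linear interpolation of the resulting dose-response curve. GI50 is the concentration that inhibits growth by half. Definition used: TGI = concentration required for complete inhibition of growth.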

Experiments:
Experiment in all cases: DTP human tumour cell line panel, 48 h
NCI-H522 lung = test system: NCI-H522 lung
SK-OV-3 ovarian = test system: SK-OV-3 ovarian
MCF7 breast = test system: MCF7 breast
M14 melanoma = test system: M14 melanoma
NCI-H460 lung = test system: NCI-H460 lung
K-562 leukemia = test system: K-562 leukemia
TK-10 renal = test system: TK-10 renal
SNB-75 CNS = test system: SNB-75 CNS
NCI-H23 lung = test system: NCI-H23 lung
COLO 205 colon = test system: COLO 205 colon
CCRF-CEM leukemia = test system: CCRF-CEM leukemia
MOLT-4 leukemia = test system: MOLT-4 leukemia
A549 NSCLC = test system: A549 NSCLC
ACHN renal = test system: ACHN renal
IGROV1 ovarian = test system: IGROV1 ovarian
HOP-92 NSCLC = test system: HOP-92 NSCLC
UACC-257 melanoma = test system: UACC-257 melanoma
UACC-62 melanoma = test system: UACC-62 melanoma
UO-31 renal = test system: UO-31 renal
OVCAR-3 ovarian = test system: OVCAR-3 ovarian
SK-MEL-2 melanoma = test system: SK-MEL-2 melanoma
MDA-MB-231 breast = test system: MDA-MB-231 breast
SF-268 CNS = test system: SF-268 CNS
HOP-62 NSCLC = test system: HOP-62 NSCLC
HS 578T breast = test system: HS 578T breast
DU-145 prostate = test system: DU-145 prostate
KM12 colon = test system: KM12 colon
MALME-3M melanoma = test system: MALME-3M melanoma
OVCAR-4 ovarian = test system: OVCAR-4 ovarian
HCT-116 colon = test system: HCT-116 colon
OVCAR-5 ovarian = test system: OVCAR-5 ovarian
SN12C renal = test system: SN12C renal
LOX IMVI melanoma = test system: LOX IMVI melanoma
HCT-15 colon = test system: HCT-15 colon
RXF 393 renal = test system: RXF 393 renal
SF-539 CNS = test system: SF-539 CNS
T-47D breast = test system: T-47D breast
SW-620 colon = test system: SW-620 colon
A498 renal = test system: A498 renal
NCI-H226 lung = test system: NCI-H226 lung
SNB-19 CNS = test system: SNB-19 CNS
HT29 colon = test system: HT29 colon
NCI/ADR-RES ovarian = test system: NCI/ADR-RES ovarian
PC-3 prostate = test system: PC-3 prostate
EKVX NSCLC = test system: EKVX NSCLC
HCC-2998 colon = test system: HCC-2998 colon
SR leukemia = test system: SR leukemia
SF-295 CNS = test system: SF-295 CNS
MDA-MB-435 = test system: MDA-MB-435
HL-60(TB) leukemia = test system: HL-60(TB) leukemia
OVCAR-8 ovarian = test system: OVCAR-8 ovarian
BT-549 breast = test system: BT-549 breast
SK-MEL-28 melanoma = test system: SK-MEL-28 melanoma
CAKI-1 renal = test system: CAKI-1 renal
SK-MEL-5 melanoma = test system: SK-MEL-5 melanoma
786-0 renal = test system: 786-0 renal
RPMI-8226 leukemia = test system: RPMI-8226 leukemia

Compound: COc1ccc(C(=O)Nc2cccc(C3CC(=O)c4c(cc(OC)c(OC)c4OC)O3)c2)cc1 (centres undefined)
- GI50 (NCI-H522 lung): 0.411 µM
- TGI (NCI-H522 lung): 5.15 µM
- GI50 (SK-OV-3 ovarian): 3.63 µM
- TGI (SK-OV-3 ovarian): 98.4 µM
- GI50 (MCF7 breast): 0.466 µM
- TGI (MCF7 breast): 56.4 µM
- GI50 (M14 melanoma): 0.534 µM
- TGI (M14 melanoma): 41.7 µM
- GI50 (NCI-H460 lung): 2.21 µM
- TGI (NCI-H460 lung): 11.7 µM
- GI50 (K-562 leukemia): 0.367 µM
- TGI (K-562 leukemia): > 100 µM
- GI50 (TK-10 renal): 7.28 µM
- TGI (TK-10 renal): > 100 µM
- GI50 (SNB-75 CNS): 1.35 µM
- TGI (SNB-75 CNS): 8.35 µM
- GI50 (NCI-H23 lung): 2.63 µM
- TGI (NCI-H23 lung): > 100 µM
- GI50 (COLO 205 colon): 2.39 µM
- TGI (COLO 205 colon): 6.57 µM
- GI50 (CCRF-CEM leukemia): 0.426 µM
- TGI (CCRF-CEM leukemia): > 100 µM
- GI50 (MOLT-4 leukemia): 1.02 µM
- TGI (MOLT-4 leukemia): 5.18 µM
- GI50 (A549 NSCLC): 3.31 µM
- TGI (A549 NSCLC): > 100 µM
- GI50 (ACHN renal): 2.57 µM
- TGI (ACHN renal): > 100 µM
- GI50 (IGROV1 ovarian): 2.41 µM
- TGI (IGROV1 ovarian): > 100 µM
- GI50 (HOP-92 NSCLC): 1.66 µM
- TGI (HOP-92 NSCLC): 8.31 µM
- GI50 (UACC-257 melanoma): 11.6 µM
- TGI (UACC-257 melanoma): 56 µM
- GI50 (UACC-62 melanoma): 0.557 µM
- TGI (UACC-62 melanoma): 10.8 µM
- GI50 (UO-31 renal): 1.33 µM
- TGI (UO-31 renal): > 100 µM
- GI50 (OVCAR-3 ovarian): 0.337 µM
- TGI (OVCAR-3 ovarian): 39.7 µM
- GI50 (SK-MEL-2 melanoma): 2.09 µM
- TGI (SK-MEL-2 melanoma): 27.1 µM
- GI50 (MDA-MB-231 breast): 2.06 µM
- TGI (MDA-MB-231 breast): > 100 µM
- GI50 (SF-268 CNS): 2.29 µM
- TGI (SF-268 CNS): > 100 µM
- GI50 (HOP-62 NSCLC): 1.72 µM
- TGI (HOP-62 NSCLC): > 100 µM
- GI50 (HS 578T breast): 2 µM
- TGI (HS 578T breast): 42.4 µM
- GI50 (DU-145 prostate): 2.88 µM
- TGI (DU-145 prostate): > 100 µM
- GI50 (KM12 colon): 1.08 µM
- TGI (KM12 colon): 14.7 µM
- GI50 (MALME-3M melanoma): 1.56 µM
- TGI (MALME-3M melanoma): 32.6 µM
- GI50 (OVCAR-4 ovarian): 3.11 µM
- TGI (OVCAR-4 ovarian): 30.7 µM
- GI50 (HCT-116 colon): 0.381 µM
- TGI (HCT-116 colon): > 100 µM
- GI50 (OVCAR-5 ovarian): 4.98 µM
- TGI (OVCAR-5 ovarian): > 100 µM
- GI50 (SN12C renal): 1.62 µM
- TGI (SN12C renal): > 100 µM
- GI50 (LOX IMVI melanoma): 0.84 µM
- TGI (LOX IMVI melanoma): 52.4 µM
- GI50 (HCT-15 colon): 0.475 µM
- TGI (HCT-15 colon): > 100 µM
- GI50 (RXF 393 renal): 1.64 µM
- TGI (RXF 393 renal): 5.48 µM
- GI50 (SF-539 CNS): 1.66 µM
- TGI (SF-539 CNS): 4.65 µM
- GI50 (T-47D breast): 2.13 µM
- TGI (T-47D breast): 8.1 µM
- GI50 (SW-620 colon): 0.691 µM
- TGI (SW-620 colon): > 100 µM
- GI50 (A498 renal): 2 µM
- TGI (A498 renal): 8.12 µM
- GI50 (NCI-H226 lung): 2.6 µM
- TGI (NCI-H226 lung): 43.1 µM
- GI50 (SNB-19 CNS): 1.01 µM
- TGI (SNB-19 CNS): > 100 µM
- GI50 (HT29 colon): 3.38 µM
- TGI (HT29 colon): 12.2 µM
- GI50 (NCI/ADR-RES ovarian): 0.629 µM
- TGI (NCI/ADR-RES ovarian): 17.6 µM
- GI50 (PC-3 prostate): 0.736 µM
- TGI (PC-3 prostate): 27.9 µM
- GI50 (EKVX NSCLC): 3.12 µM
- TGI (EKVX NSCLC): > 100 µM
- GI50 (HCC-2998 colon): 3.46 µM
- TGI (HCC-2998 colon): 87.1 µM
- GI50 (SR leukemia): 0.171 µM
- TGI (SR leukemia): > 100 µM
- GI50 (SF-295 CNS): 1.72 µM
- TGI (SF-295 CNS): 63.8 µM
- GI50 (MDA-MB-435): 0.276 µM
- TGI (MDA-MB-435): 1.4 µM
- GI50 (HL-60(TB) leukemia): 1 µM
- TGI (HL-60(TB) leukemia): 3.36 µM
- GI50 (OVCAR-8 ovarian): 2.79 µM
- TGI (OVCAR-8 ovarian): 20.5 µM
- GI50 (BT-549 breast): 1.01 µM
- TGI (BT-549 breast): 7.81 µM
- GI50 (SK-MEL-28 melanoma): 5.13 µM
- TGI (SK-MEL-28 melanoma): > 100 µM
- GI50 (CAKI-1 renal): 1.58 µM
- TGI (CAKI-1 renal): > 100 µM
- GI50 (SK-MEL-5 melanoma): 1.49 µM
- TGI (SK-MEL-5 melanoma): 4.04 µM
- GI50 (786-0 renal): 0.795 µM
- TGI (786-0 renal): > 100 µM
- GI50 (RPMI-8226 leukemia): 0.726 µM
- TGI (RPMI-8226 leukemia): 3.51 µM
